Key:
Format in all cases: in vivo
[1] = system: barnyardgrass (Echinochloa crus-galli); test: Test A greenhouse herbicide test, pre- and postemergence
In short: (§1)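 Seeds in loam–sand blend received a preemergence directed soil spray; plants at 2–10 cm, one- to two-leaf stage, received postemergence sprays. Compounds in a non-phytotoxic solvent with surfactant. After about 10 d in a greenhouse, injury rated visually versus untreated controls on a 0–100 scale (100 = complete control).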

[2] = system: corn (Zea mays); test: as above; settings: Postemergence; for Corn plant response rating: 0 is no effect, 100 is complete control
In short: as §1

[3] = system: foxtail, giant (giant foxtail, Setaria faberii); test: as above
In short: as §1

[4] = system: kochia (Kochia scoparia); test: as above
In short: as §1

[5] = system: pigweed (Amaranthus retroflexus); test: as above
In short: as §1

[6] = system: ragweed (common ragweed, Ambrosia elatior); test: as above
In short: as §1

[7] = system: ryegrass, Italian (Italian ryegrass, Lolium multiflorum); test: as above
In short: as §1

[8] = system: wheat (Triticum aestivum); test: as above; settings: Postemergence; for Wheat plant response rating: 0 is no effect, 100 is complete control
In short: as §1

[9] = system: barnyardgrass (Echinochloa crus-galli); test: Test C greenhouse herbicide test, pre- and postemergence
In short: (§2)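 Seeds sown in loam–sand blend treated preemergence; plants in peat-based medium sprayed postemergence at 2–18 cm (1- to 4-leaf stage); chemicals in non-phytotoxic solvent with surfactant. Greenhouse 13–15 d, then visual rating versus controls on 0–100 scale (0 no effect, 100 complete control).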

[10] = system: galium (catchweed bedstraw, Galium aparine); test: as above
In short: as §2

[11] = system: velvetleaf (Abutilon theophrasti); test: as above
In short: as §2

[12] = Postemergence, 125 g ai/ha, 0 to 100 scale, 0 no effect, 100 complete control
[13] = Postemergence, 500 g ai/ha, visual rating after approx. 10 d, 0 to 100 scale (0 no effect, 100 complete control)
[14] = Preemergence, 125 g ai/ha, visual injury rating, 0 to 100 scale (0 no effect, 100 complete control), approx. 10 d
[15] = Preemergence, 500 g ai/ha, 0 to 100 scale where 0 is no effect and 100 is complete control
[16] = 125 g ai/ha, 0 to 100 scale, 0 no effect, 100 complete control
[17] = 500 g ai/ha, visual rating after approx. 10 d, 0 to 100 scale (0 no effect, 100 complete control)
[18] = Postemergence, 31 g ai/ha, scale 0 to 100 (0 no effect, 100 complete control)
[19] = Postemergence, 62 g ai/ha, 0 to 100 scale (0 no effect, 100 complete control)
[20] = Postemergence, 125 g ai/ha, scale 0 to 100, 0 is no effect, 100 is complete control
[21] = Postemergence, 250 g ai/ha, scale 0 to 100, 0 no effect, 100 complete control, 13 to 15 d
[22] = Preemergence, 31 g ai/ha, scale 0 to 100, 0 is no effect, 100 is complete control
[23] = Preemergence, 62 g ai/ha, scale 0 to 100, 0 is no effect, 100 is complete control
[24] = Preemergence, 125 g ai/ha, scale 0 to 100, 0 is no effect, 100 is complete control
[25] = Preemergence, 250 g ai/ha, scale 0 to 100 (0 no effect, 100 complete control)
[26] = postemergence, 125 g ai/ha, scale 0 to 100, 0 no effect, 100 complete control
[27] = Postemergence, 125 g ai/ha, visual rating after approx. 10 d, 0 to 100 scale (0 no effect, 100 complete control)
[28] = Postemergence, 500 g ai/ha, 0 to 100 scale, 0 is no effect, 100 is complete control
[29] = Preemergence, 125 g ai/ha, 0 to 100 scale where 0 is no effect and 100 is complete control
[30] = Preemergence, 500 g ai/ha, 0 to 100 scale, 0 no effect, 100 complete control
[31] = Postemergence, 125 g ai/ha, 0 to 100 scale where 0 is no effect and 100 is complete control
[32] = 125 g ai/ha, 0 to 100 scale where 0 is no effect and 100 is complete control
[33] = Postemergence, 31 g ai/ha, 0 to 100 scale (0 no effect, 100 complete control)
[34] = postemergence, 62 g ai/ha, scale 0 to 100, 0 no effect, 100 complete control

Cc1cc(C)c2ccccc2c1-c1c(OS(C)(=O)=O)c(C)nn(C)c1=O [Compound 154]
Plant response rating, Barnyardgrass [1, 12]: 90 | Plant response rating, Barnyardgrass [1, 13]: 90 | Plant response rating, Barnyardgrass [1, 14]: 70 | Plant response rating, Barnyardgrass [1, 15]: 100 | Plant response rating, Corn [2, 16]: 0 | Plant response rating, Corn [2, 17]: 40 | Plant response rating, Foxtail, Giant [3, 12]: 90 | Plant response rating, Foxtail, Giant [3, 13]: 90 | Plant response rating, Foxtail, Giant [3, 14]: 90 | Plant response rating, Foxtail, Giant [3, 15]: 100 | Plant response rating, Kochia [4, 12]: 20 | Plant response rating, Kochia [4, 13]: 50 | Plant response rating, Kochia [4, 14]: 0 | Plant response rating, Kochia [4, 15]: 20 | Plant response rating, Pigweed [5, 12]: 90 | Plant response rating, Pigweed [5, 13]: 90 | Plant response rating, Pigweed [5, 14]: 100 | Plant response rating, Pigweed [5, 15]: 100 | Plant response rating, Ragweed [6, 12]: 80 | Plant response rating, Ragweed [6, 13]: 80 | Plant response rating, Ragweed [6, 14]: 80 | Plant response rating, Ragweed [6, 15]: 90 | Plant response rating, Ryegrass, Italian [7, 12]: 90 | Plant response rating, Ryegrass, Italian [7, 13]: 100 | Plant response rating, Ryegrass, Italian [7, 14]: 90 | Plant response rating, Ryegrass, Italian [7, 15]: 100 | Plant response rating, Wheat [8, 16]: 0 | Plant response rating, Wheat [8, 17]: 20 | Plant response rating, Barnyardgrass [9, 18]: 70 | Barnyardgrass plant response rating [9, 19]: 85 | Plant response rating, Barnyardgrass [9, 20]: 90 | Plant response rating, Barnyardgrass [9, 21]: 95 | Plant response rating, Barnyardgrass [9, 22]: 65 | Plant response rating, Barnyardgrass [9, 23]: 80 | Plant response rating, Barnyardgrass [9, 24]: 90 | Barnyardgrass plant response rating [9, 25]: 95 | Plant response rating, Galium [10, 18]: 95 | Galium plant response rating [10, 19]: 95 | Plant response rating, Galium [10, 21]: 95 | Plant response rating, Galium [10, 22]: 98 | Plant response rating, Galium [10, 23]: 95 | Plant response rating, Galium [10, 24]: 98 | Galium plant response rating [10, 25]: 100 | Galium plant response rating [10, 26]: 95 | Plant response rating, Velvetleaf [11, 18]: 70 | Velvetleaf plant response rating [11, 19]: 85 | Plant response rating, Velvetleaf [11, 21]: 90 | Plant response rating, Velvetleaf [11, 22]: 40 | Plant response rating, Velvetleaf [11, 23]: 60 | Plant response rating, Velvetleaf [11, 24]: 85 | Velvetleaf plant response rating [11, 25]: 85 | Velvetleaf plant response rating [11, 26]: 85

CCOC(=O)Oc1c(C)nn(C)c(=O)c1-c1c(CC)ccc2ccccc12 [Compound 37]
Plant response rating, Barnyardgrass [1, 27]: 60 | Barnyardgrass plant response rating [1, 28]: 90 | Barnyardgrass plant response rating [1, 29]: 30 | Plant response rating, Barnyardgrass [1, 30]: 90 | Plant response rating, Corn ([2]; 125 g ai/ha, visual rating after approx. 10 d, 0 to 100 scale (0 no effect, 100 complete control)): 0 | Corn plant response rating ([2]; 500 g ai/ha, 0 to 100 scale): 40 | Plant response rating, Foxtail, Giant [3, 27]: 80 | Foxtail, Giant plant response rating [3, 28]: 90 | Foxtail, Giant plant response rating [3, 29]: 70 | Plant response rating, Foxtail, Giant [3, 30]: 90 | Plant response rating, Kochia [4, 27]: 60 | Kochia plant response rating [4, 28]: 90 | Kochia plant response rating [4, 29]: 30 | Plant response rating, Kochia [4, 30]: 80 | Plant response rating, Pigweed [5, 27]: 100 | Pigweed plant response rating [5, 28]: 100 | Pigweed plant response rating [5, 29]: 100 | Plant response rating, Pigweed [5, 30]: 100 | Plant response rating, Ragweed [6, 27]: 90 | Ragweed plant response rating [6, 28]: 90 | Ragweed plant response rating [6, 29]: 80 | Plant response rating, Ragweed [6, 30]: 90 | Plant response rating, Ryegrass, Italian [7, 31]: 90 | Ryegrass, Italian plant response rating [7, 28]: 100 | Ryegrass, Italian plant response rating [7, 29]: 90 | Plant response rating, Ryegrass, Italian [7, 30]: 100 | Plant response rating, Wheat [8, 32]: 40 | Wheat plant response rating ([8]; 500 g ai/ha, 0 to 100 scale): 80 | Barnyardgrass plant response rating [9, 33]: 25 | Plant response rating, Barnyardgrass [9, 20]: 60 | Plant response rating, Barnyardgrass [9, 21]: 90 | Plant response rating, Barnyardgrass [9, 22]: 10 | Plant response rating, Barnyardgrass [9, 23]: 30 | Plant response rating, Barnyardgrass [9, 24]: 70 | Barnyardgrass plant response rating [9, 25]: 80 | Barnyardgrass plant response rating [9, 34]: 20 | Galium plant response rating [10, 33]: 90 | Plant response rating, Galium [10, 20]: 95 | Plant response rating, Galium [10, 21]: 95 | Plant response rating, Galium [10, 22]: 100 | Plant response rating, Galium [10, 23]: 90 | Plant response rating, Galium [10, 24]: 95 | Galium plant response rating [10, 25]: 100 | Galium plant response rating [10, 34]: 95 | Velvetleaf plant response rating [11, 33]: 20 | Plant response rating, Velvetleaf [11, 20]: 85 | Plant response rating, Velvetleaf [11, 21]: 90 | Plant response rating, Velvetleaf [11, 22]: 25 | Plant response rating, Velvetleaf [11, 23]: 80 | Plant response rating, Velvetleaf [11, 24]: 85 | Velvetleaf plant response rating [11, 25]: 90 | Velvetleaf plant response rating [11, 34]: 70

Cc1nn(C)c(=O)c(-c2c(C)sc3ccccc23)c1O [Compound 65]
Plant response rating, Barnyardgrass [1, 31]: 20 | Barnyardgrass plant response rating [1, 28]: 90 | Barnyardgrass plant response rating [1, 29]: 60 | Plant response rating, Barnyardgrass [1, 30]: 90 | Plant response rating, Corn [2, 32]: 0 | Corn plant response rating ([2]; 500 g ai/ha, 0 to 100 scale): 0 | Plant response rating, Foxtail, Giant [3, 31]: 20 | Foxtail, Giant plant response rating [3, 28]: 90 | Foxtail, Giant plant response rating [3, 29]: 60 | Plant response rating, Foxtail, Giant [3, 30]: 90 | Plant response rating, Kochia [4, 31]: 90 | Kochia plant response rating [4, 28]: 90 | Kochia plant response rating [4, 29]: 60 | Plant response rating, Kochia [4, 30]: 90 | Plant response rating, Pigweed [5, 31]: 80 | Pigweed plant response rating [5, 28]: 90 | Pigweed plant response rating [5, 29]: 100 | Plant response rating, Pigweed [5, 30]: 100 | Plant response rating, Ragweed [6, 31]: 50 | Ragweed plant response rating [6, 28]: 90 | Ragweed plant response rating [6, 29]: 70 | Plant response rating, Ragweed [6, 30]: 80 | Plant response rating, Ryegrass, Italian [7, 31]: 90 | Ryegrass, Italian plant response rating [7, 28]: 100 | Ryegrass, Italian plant response rating [7, 29]: 90 | Plant response rating, Ryegrass, Italian [7, 30]: 100 | Plant response rating, Wheat [8, 32]: 0 | Wheat plant response rating ([8]; 500 g ai/ha, 0 to 100 scale): 0 | Barnyardgrass plant response rating [9, 33]: 10 | Plant response rating, Barnyardgrass [9, 20]: 35 | Plant response rating, Barnyardgrass [9, 21]: 50 | Barnyardgrass plant response rating [9, 34]: 15 | Galium plant response rating [10, 33]: 85 | Plant response rating, Galium [10, 20]: 90 | Plant response rating, Galium [10, 21]: 90 | Galium plant response rating [10, 34]: 85 | Velvetleaf plant response rating [11, 33]: 10 | Plant response rating, Velvetleaf [11, 20]: 65 | Plant response rating, Velvetleaf [11, 21]: 75 | Velvetleaf plant response rating [11, 34]: 20

Reference: patent publication US10597388B2, “Pyridazinone herbicides” (FMC CORPORATION, priority 2014, dated 2020)
